The record followed here is patent US20230322805A1, “NOVEL PYRIMIDODIAZEPINE DERIVATIVES OR USES THEREOF” (SPARK BIOPHARMA, INC., priority 2020, published 2023).

Molecules are shown by their SMILES.

The test system of data set [1] is BiFC-tau Venus HEK293 cells (tau aggregation, hTau441). The data set is described as follows: BiFC-tau Venus HEK293 cell assay monitoring tau aggregation under thapsigargin. The class given is cell-based, human. The conditions noted are these: for IC50 / activity at 10 µM: Homo sapiens; for IC50: HEK293, inhibition of BiFC-tau Venus fluorescence, 80 nM thapsigargin, table head prints no unit, μM, read-out: BiFC-tau intensity (IC50); for activity at 10 µM: HEK293-BiFC-tau-Venus cells co-treated with 10 μM compound and 80 nM thapsigargin for 24 hours, read-out: BiFC-tau intensity (%). The protocol:
Phenotype-based screening to monitor tau assembly was performed using BiFC-tau Venus HEK293 cells in a high-throughput manner. Cells were seeded in 384-well plates at a density of 2.8×10^3 cells/well in 40 μL medium for 24 hours. Cells were treated with 80 nM thapsigargin (Sigma-Aldrich) in 10 μL medium and then ˜ 3,000 pDOS library compounds (10 μM), including compounds according to the present invention, using a 0.1 μL pinning tool. For knockdown experiments, cells were transfected with 5 or 10 nM siRNA using Lipofectamine RNAiMAX and incubated for 48 hours before thapsigargin treatment. […] Plates were scanned on an INCell Analyzer 2000 (GE Healthcare) at λex/λem=490/525 nm for Venus fluorescence (for the FITC channel) and λex/λem=350/455 nm for nuclei (for the DAPI channel). Bright-field images were taken to confirm cell morphology, and images were analyzed to quantify Venus intensity per cell using developer software (GE Healthcare).
1-1. According to the method described in Examples 1-15 above, the expression of Venus-based bimolecular fluorescence complemented-tau (BiFC-tau) was confirmed using HEK293 human embryonic kidney cells, thereby phenotyping the phenotype-based screening was performed.
The N-terminal Venus (VN173) and C-terminal Venus (VC155) fragment sequences are fused with the full-length human tau (hTau441) sequence to form the BiFC-tau Venus HEK293 cell system. Soluble tau dimers can be measured by monitoring the turn-on/off signal of Venus fluorescence through co-expression of the two fused vectors, hTau441-VN173 and hTau441-VC1 55.
As a stimulator of tau aggregation, thapsigargin (TG; an ER stress inducer), a direct inhibitor of sarco/endoplasmic reticulum Ca2^+-ATPase, was used. This disrupts calcium homeostasis. Thapsigargin treatment induces tau dimerization (tau aggregation), which can be confirmed by BiFC-tau Venus fluorescence turn-on.

In data set [2] the test system is acute Alzheimer's mouse model. The data set is described as follows: Acute Alzheimer's mouse model (acquisition and probe test). The class given is in vivo. The conditions noted are these: acute Alzheimer's mouse model. On the procedure: 7-1. Potential therapeutic effect of SB1617 in an acute Alzheimer's mouse model was identified, and the design for the experiment is schematically shown in FIG. 40
7-3. As a result of confirming the treatment efficacy through a probe test, after removing the platform, it was performed by recording how many times the mouse passed the position where the platform was […]

By IC50 is commonly meant the concentration needed to halve the response being measured. For orientation: melting point means the temperature of the solid-liquid transition. Compound `Cc1ccc(S(=O)(=O)N2[C@H]3CNc4ncnc(N(C)Cc5ccccc5)c4[C@@H]2OC3)cc1` [Compound 101] had a melting point of 150 to 152 °C. Further, in data set [1], the IC50 came out at 9.1 µM and the activity at 10 µM is 65%.

On to `COc1ccc(S(=O)(=O)N2[C@H]3CNc4ncnc(N(C)Cc5ccccc5)c4[C@@H]2OC3)cc1` [Compound 102], for which the melting point was in the range of 121 to 123 °C. Further, the activity at 10 µM in data set [1] was found to be 79%.

Consider `CN(Cc1ccccc1)c1ncnc2c1[C@@H]1OC[C@H](CN2)N1S(=O)(=O)c1ccccc1[N+](=O)[O-]` [Compound 103], for which the activity at 10 µM in data set [1] was 102%.

As for `CN(Cc1ccccc1)c1ncnc2c1[C@@H]1OC[C@H](CN2)N1S(=O)(=O)c1cccc([N+](=O)[O-])c1` [Compound 104], the activity at 10 µM in data set [1] is 115%.

As for `CN(Cc1ccccc1)c1ncnc2c1[C@@H]1OC[C@H](CN2)N1S(=O)(=O)c1ccc([N+](=O)[O-])cc1` [Compound 105], the melting point lay in the range of 97 to 99 °C. Besides, in data set [1], the IC50 was 5.2 µM and the activity at 10 µM came out at 46%.

Compound `CN(Cc1ccccc1)c1ncnc2c1[C@@H]1OC[C@H](CN2)N1S(=O)(=O)c1ccc(F)cc1` [Compound 106] showed a melting point of 105 to 107 °C. Moreover, the activity at 10 µM in data set [1] worked out at 81%.

Compound `CN(Cc1ccccc1)c1ncnc2c1[C@@H]1OC[C@H](CN2)N1S(C)(=O)=O` [Compound 107] registered a melting point of 136 to 138 °C. The activity at 10 µM in data set [1] was determined as 94%. The “change in Venus fluorescence intensity” value in data set [1] (various concentrations with 80 nM TG for 20 hours) was “the activity was lost”.

As for `CN(Cc1ccccc1)c1ncnc2c1[C@@H]1OC[C@H](CN2)N1S(=O)(=O)c1ccccc1` [Compound 108], the melting point fell in the range of 120 to 122 °C. Besides, in data set [1], the activity at 10 µM stood at 105%.

As to `CN(Cc1ccccc1)c1ncnc2c1[C@@H]1OC[C@H](CN2)N1S(=O)(=O)Cc1ccccc1` [Compound 109], the melting point was 78 to 80 °C. For the same compound, the activity at 10 µM in data set [1] was 84%.

In turn, `CN(Cc1ccccc1)c1ncnc2c1[C@@H]1OC[C@H](CN2)N1S(=O)(=O)c1cccnc1` [Compound 110] yielded a melting point of 185 to 187 °C. The activity at 10 µM in data set [1] came out at 130%.

`CN(Cc1ccccc1)c1ncnc2c1[C@@H]1OC[C@H](CN2)N1S(=O)(=O)c1cccs1` [Compound 111]: the melting point was 112 to 114 °C. Further, in data set [1], the activity at 10 µM turned out to be 110%.

Regarding `CN(C)c1ncnc2c1[C@@H]1OC[C@H](CN2)N1S(=O)(=O)c1ccc([N+](=O)[O-])cc1` [Compound 112], the melting point fell in the range of 118 to 120 °C. In addition, the activity at 10 µM in data set [1] amounted to 90%.

On to `CN(CCc1ccccc1)c1ncnc2c1[C@@H]1OC[C@H](CN2)N1S(=O)(=O)c1ccc([N+](=O)[O-])cc1` [Compound 113], for which the melting point was 108 to 110 °C. The activity at 10 µM in data set [1] was determined as 71%.

With `CC(C)N(Cc1ccccc1)c1ncnc2c1[C@@H]1OC[C@H](CN2)N1S(=O)(=O)c1ccc([N+](=O)[O-])cc1` [Compound 114], the melting point is 85 to 87 °C. In data set [1], the 50% inhibitory concentration (IC50) is 6.9 µM and the activity at 10 µM amounted to 47%.

The compound `C=C(C)c1ncnc2c1[C@@H]1OC[C@H](CN2)N1S(=O)(=O)c1ccc([N+](=O)[O-])cc1` [Compound 115] yielded a melting point of 200 to 202 °C. In addition, the activity at 10 µM in data set [1] came out at 99%.

Turning to `COc1ccc(-c2ncnc3c2[C@@H]2OC[C@H](CN3)N2S(=O)(=O)c2ccc([N+](=O)[O-])cc2)cc1` [Compound 116], the melting point was 250 to 252 °C. Further, the activity at 10 µM in data set [1] is 135%.

For the compound `CN(Cc1ccc(F)cc1)c1ncnc2c1[C@@H]1OC[C@H](CN2)N1S(=O)(=O)c1ccc([N+](=O)[O-])cc1` [Compound 118], the melting point was 102 to 104 °C. Moreover, in data set [1], the half-maximal inhibitory concentration (IC50) was 7.6 µM and the activity at 10 µM is 55%.

`CN(Cc1ccc(N=[N+]=[N-])cc1)c1ncnc2c1[C@@H]1OC[C@H](CN2)N1S(=O)(=O)c1ccc([N+](=O)[O-])cc1` [Compound 119]: the melting point was in the range of 88 to 90 °C. Further, in data set [1], the concentration for half-maximal inhibition (IC50) stood at 4.6 µM and the activity at 10 µM came out at 56%.

Compound `CN(Cc1ccc(Cl)cc1)c1ncnc2c1[C@@H]1OC[C@H](CN2)N1S(=O)(=O)c1ccc(F)cc1` [Compound 120] yielded a melting point of 150 to 152 °C. For the same compound, the activity at 10 µM in data set [1] was determined as 81%.

As to `COc1ccc(S(=O)(=O)N2[C@H]3CNc4ncnc(N(C)Cc5ccc(Cl)cc5)c4[C@@H]2OC3)cc1` [Compound 121], the melting point was 156 to 158 °C. Further, in data set [1], the half-inhibitory concentration (IC50) was 6.6 µM and the activity at 10 µM was 51%.

Regarding `CC(=O)N1C[C@H]2CO[C@@H](c3c(N(C)Cc4ccc(Cl)cc4)ncnc31)N2S(=O)(=O)c1ccc([N+](=O)[O-])cc1` [Compound 122], the melting point is 105 to 107 °C. Moreover, in data set [1], the activity at 10 µM is 81%.

`CN(Cc1ccc(Cl)cc1)c1ncnc2c1[C@@H]1OC[C@H](CN2C(=O)C2CC2)N1S(=O)(=O)c1ccc([N+](=O)[O-])cc1` [Compound 123] yielded a melting point of 124 to 126 °C. Moreover, the activity at 10 µM in data set [1] was 78%.

For `C#Cc1ccc(S(=O)(=O)N2[C@H]3CNc4ncnc(N(C)Cc5ccc(N=[N+]=[N-])cc5)c4[C@@H]2OC3)cc1` [Compound 124], the melting point is 139 to 141 °C. Moreover, in data set [1], the IC50 amounted to 8.1 µM and the activity at 10 µM worked out at 50%.

On to `CN(Cc1ccc(Cl)cc1)c1ncnc2c1[C@H]1OC[C@@H](CN2)N1S(=O)(=O)c1ccc([N+](=O)[O-])cc1` [Compound 125], for which the activity at 10 µM in data set [1] came out at 98%.

`C=CCOC(=O)N1[C@H]2CNc3ncnc(N(C)Cc4ccc(Cl)cc4)c3[C@@H]1OC2` [Compound 126]: the activity at 10 µM in data set [1] came out at 100%.

For `CN(Cc1ccc(Cl)cc1)c1ncnc2c1CN(S(=O)(=O)c1ccc([N+](=O)[O-])cc1)[C@H](CO)CN2` [Compound 127], in data set [1], the activity at 10 µM came out at 100%.

`CN(Cc1ccc(Cl)cc1)c1ncnc2c1[C@H]1OCC[C@@H](CN2)N1S(=O)(=O)c1ccc([N+](=O)[O-])cc1` [Compound 128]: the activity at 10 µM in data set [1] is 95%.

In the case of `CN(Cc1ccc(Cl)cc1)c1ncnc2c1[C@@H]1OC[C@H](CN2C(=O)c2ccc(F)cc2)N1S(=O)(=O)c1ccc([N+](=O)[O-])cc1` [Compound 129], the activity at 10 µM in data set [1] turned out to be 70%.

`CCN1C[C@H]2CO[C@@H](c3c(N(C)Cc4ccc(Cl)cc4)ncnc31)N2S(=O)(=O)c1ccc([N+](=O)[O-])cc1` [Compound 130]: the activity at 10 µM in data set [1] worked out at 70%.

For `CN(Cc1ccc(Cl)cc1)c1ncnc2c1[C@@H]1SC[C@H](CN2)N1S(=O)(=O)c1ccc([N+](=O)[O-])cc1` [Compound 131], the activity at 10 µM in data set [1] came to 98%.

Take `CN(Cc1ccc(Cl)cc1)c1ncnc2c1[C@@H]1SC[C@@H](CN2)N1C(=O)OC(C)(C)C` [Compound 132]: the activity at 10 µM in data set [1] is 80%.

With `CN(Cc1ccc(Cl)cc1)c1ncnc2c1[C@@H]1SC[C@H](CN2)N1C(=O)Nc1ccc([N+](=O)[O-])cc1` [Compound 133], in data set [1], the activity at 10 µM worked out at 94%.

For the compound `CN(Cc1ccc(Cl)cc1)c1ncnc2c1[C@H]1N(S(=O)(=O)c3ccc([N+](=O)[O-])cc3)[C@@H](CN2)CS1(=O)=O` [Compound 134], the activity at 10 µM in data set [1] was 100%.

With `COc1ccc(CN(C)c2ncnc3c2[C@@H]2SC[C@H](CN3)N2S(=O)(=O)c2ccc([N+](=O)[O-])cc2)cc1` [Compound 135], the activity at 10 µM in data set [1] came out at 57%.

For the compound `CNc1ncnc2c1[C@@H]1OC[C@H](CN2)N1S(=O)(=O)c1ccc([N+](=O)[O-])cc1` [Compound 136], in data set [1], the activity at 10 µM was 10%.

Consider `COc1cc2c(cc1OC)C(=O)C(CC1CCN(Cc3ccccc3)CC1)C2` (centres unmarked) [Donepezil, reference compound], for which, in data set [2], the “learning ability (Acquisition test), rank order” value is “WT >Donepezil >SB-1617>Vehicle”.
